Earlier results, collected in patent publication US20060009471A1, “Amido compounds and their use as pharmaceuticals” (priority 2004, published 2006).

Molecular target: T1, 11βHSD1 in the eye (Homo sapiens, UniProt P28845)
T1 construct: host or cells: eye (non-pigmented epithelial cells) of healthy volunteers, in vivo
Settings: healthy volunteers, after seven days of carbenoxolone treatment

T1 sequence (P28845 whole entry): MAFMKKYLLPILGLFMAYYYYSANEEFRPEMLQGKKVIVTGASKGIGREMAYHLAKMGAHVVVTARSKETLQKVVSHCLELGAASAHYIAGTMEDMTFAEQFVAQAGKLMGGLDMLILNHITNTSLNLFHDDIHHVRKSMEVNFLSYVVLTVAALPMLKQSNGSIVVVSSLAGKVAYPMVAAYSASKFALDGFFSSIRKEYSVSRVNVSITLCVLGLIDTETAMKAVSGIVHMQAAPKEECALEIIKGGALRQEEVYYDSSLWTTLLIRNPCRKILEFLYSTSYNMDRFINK

Q: With `CC1(C)[C@@H](OC(=O)CCC(=O)O)CC[C@]2(C)[C@H]3C(=O)C=C4[C@@H]5C[C@@](C)(C(=O)O)CC[C@]5(C)CC[C@@]4(C)[C@]3(C)CC[C@@H]12` [carbenoxolone] as the molecule, how does the IOP reduced read?
A: The IOP reduced was 18%.
